{"source": "patent US10294202B2", "about": "“Pyrrolidinones as herbicides” (FMC Corporation, priority 2013, dated 2019)", "key": {"blackgrass [1]": {"system": "blackgrass", "assay": "Test A postemergence herbicide test", "format": "in vivo, Alopecurus myosuroides", "in_short": "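Young potted plants in a loam–sand mix, one- to two-leaf stage and 2–10 cm tall, receive the test chemical postemergence and stay in a greenhouse for approximately 10 days. Injury is then judged by eye against untreated plants, scored 0 (none) to 100 (complete control).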"}, "blackgrass [2]": {"system": "blackgrass", "assay": "Test C pre-/postemergence herbicide test", "format": "in vivo, Alopecurus myosuroides", "in_short": "(§1)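 Test compounds, formulated in a surfactant-containing non-phytotoxic solvent blend, are applied to seeded loam/sand soil (preemergence) and to young plants at the 1- to 4-leaf stage in peat-based medium (postemergence). Plants stay 13 to 15 days under greenhouse conditions, then are scored visually relative to controls, 0 = no effect, 100 = complete control.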"}, "galium": {"system": "galium", "assay": "Test C pre-/postemergence herbicide test", "format": "in vivo, Galium aparine", "in_short": "as §1"}, "foxtail, giant": {"system": "foxtail, giant", "assay": "Test C pre-/postemergence herbicide test", "format": "in vivo, Setaria faberii", "in_short": "as §1"}, "barnyardgrass": {"system": "barnyardgrass", "assay": "Test C pre-/postemergence herbicide test", "format": "in vivo, Echinochloa crus-galli", "in_short": "as §1"}, "kochia": {"system": "kochia", "assay": "Test C pre-/postemergence herbicide test", "format": "in vivo, Kochia scoparia", "conditions": "Postemergence", "in_short": "as §1"}, "velvetleaf": {"system": "velvetleaf", "assay": "Test C pre-/postemergence herbicide test", "format": "in vivo, Abutilon theophrasti", "in_short": "as §1"}, "rice": {"system": "rice", "assay": "Test C flooded paddy test", "format": "in vivo, Oryza sativa", "conditions": "Flood", "in_short": "(§2)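 Visual injury scored against controls after 13 to 15 days in the greenhouse, using 0 (no effect) to 100 (complete control). Test compounds went straight into paddy water held 3 cm above the soil surface on 2-leaf-stage plants, with that flood depth maintained for the whole test.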"}, "sedge, umbrella": {"system": "sedge, umbrella", "assay": "Test C flooded paddy test", "format": "in vivo, Cyperus difformis", "conditions": "Flood", "in_short": "as §2"}, "[3]": {"conditions": "Postemergence, 31 g ai/ha, scale 0 to 100 (0 no effect, 100 complete control)"}, "[4]": {"conditions": "Postemergence, 62 g ai/ha, scale 0 (no effect) to 100 (complete control)"}, "[5]": {"conditions": "Postemergence, 125 g ai/ha, scale 0 to 100 (0 no effect, 100 complete control)"}, "[6]": {"conditions": "Postemergence, 250 g ai/ha, scale 0 to 100 (0 no effect, 100 complete control)"}, "[7]": {"conditions": "Preemergence, 62 g ai/ha, scale 0 to 100 (0 no effect, 100 complete control)"}, "[8]": {"conditions": "Preemergence, 125 g ai/ha, scale 0 to 100"}, "[9]": {"conditions": "Preemergence, 31 g ai/ha, scale 0 to 100"}, "[10]": {"conditions": "125 g ai/ha, scale of 0 to 100 where 0 is no effect and 100 is complete control, 13 to 15 days"}, "[11]": {"conditions": "250 g ai/ha, scale of 0 to 100 where 0 is no effect and 100 is complete control, 13 to 15 days"}}, "data": [{"smiles": "O=C1NCC(c2ccc(F)c(F)c2)C1C(=O)Nc1ccc(F)c(F)c1F", "note": "(centres unmarked) [Compound 346]", "values": [{"measurement": "Plant response rating, Blackgrass", "setting": "blackgrass [1]; 125 g ai/ha, visual rating on 0 to 100 scale (0 no effect, 100 complete control), approx. 10 days", "value": 20}, {"measurement": "Plant response rating, Blackgrass", "setting": "blackgrass [1]; 500 g ai/ha, 0 to 100 scale (0 no effect, 100 complete control)", "value": 50}, {"measurement": "Plant response rating, Blackgrass", "setting": "blackgrass [2]; [3]", "value": 0}, {"measurement": "Plant response rating, Blackgrass", "setting": "blackgrass [2]; [4]", "value": 0}, {"measurement": "Plant response rating, Blackgrass", "setting": "blackgrass [2]; [5]", "value": 0}, {"measurement": "Plant response rating, Blackgrass", "setting": "blackgrass [2]; [6]", "value": 5}, {"measurement": "Blackgrass plant response rating", "setting": "blackgrass [2]; [7]", "value": 60}, {"measurement": "Plant response rating, Blackgrass", "setting": "blackgrass [2]; [8]", "value": 75}, {"measurement": "Plant response rating (scale of 0 to 100), Blackgrass", "setting": "blackgrass [2]; Preemergence, 250 g ai/ha", "value": 85}, {"measurement": "Plant response rating, Blackgrass", "setting": "blackgrass [2]; [9]", "value": 20}, {"measurement": "Plant response rating, Galium", "setting": "galium; [3]", "value": 30}, {"measurement": "Plant response rating, Galium", "setting": "galium; [4]", "value": 25}, {"measurement": "Plant response rating, Galium", "setting": "galium; [5]", "value": 40}, {"measurement": "Plant response rating, Galium", "setting": "galium; [6]", "value": 70}, {"measurement": "Galium plant response rating", "setting": "galium; [7]", "value": 20}, {"measurement": "Plant response rating, Galium", "setting": "galium; [8]", "value": 90}, {"measurement": "Plant response rating (scale of 0 to 100), Galium", "setting": "galium; Preemergence, 250 g ai/ha", "value": 90}, {"measurement": "Plant response rating, Galium", "setting": "galium; [9]", "value": 10}, {"measurement": "Plant response rating, Foxtail, Giant", "setting": "foxtail, giant; [3]", "value": 20}, {"measurement": "Plant response rating, Foxtail, Giant", "setting": "foxtail, giant; [4]", "value": 0}, {"measurement": "Plant response rating, Foxtail, Giant", "setting": "foxtail, giant; [5]", "value": 40}, {"measurement": "Plant response rating, Foxtail, Giant", "setting": "foxtail, giant; [6]", "value": 85}, {"measurement": "Foxtail, Giant plant response rating", "setting": "foxtail, giant; [7]", "value": 90}, {"measurement": "Plant response rating, Foxtail, Giant", "setting": "foxtail, giant; [8]", "value": 98}, {"measurement": "Plant response rating (scale of 0 to 100), Foxtail, Giant", "setting": "foxtail, giant; Preemergence, 250 g ai/ha", "value": 98}, {"measurement": "Plant response rating, Foxtail, Giant", "setting": "foxtail, giant; [9]", "value": 90}, {"measurement": "Plant response rating, Barnyardgrass", "setting": "barnyardgrass; [3]", "value": 0}, {"measurement": "Plant response rating, Barnyardgrass", "setting": "barnyardgrass; [4]", "value": 0}, {"measurement": "Plant response rating, Barnyardgrass", "setting": "barnyardgrass; [5]", "value": 30}, {"measurement": "Plant response rating, Barnyardgrass", "setting": "barnyardgrass; [6]", "value": 60}, {"measurement": "Barnyardgrass plant response rating", "setting": "barnyardgrass; [7]", "value": 70}, {"measurement": "Plant response rating, Barnyardgrass", "setting": "barnyardgrass; Preemergence, 125 g ai/ha, scale 0 to 100 (0 no effect, 100 complete control)", "value": 95}, {"measurement": "Plant response rating (scale of 0 to 100; 0 is no effect, 100 is complete control), Barnyardgrass", "setting": "barnyardgrass; Preemergence, 250 g ai/ha", "value": 98}, {"measurement": "Plant response rating, Barnyardgrass", "setting": "barnyardgrass; [9]", "value": 50}, {"measurement": "Plant response rating, Kochia", "setting": "kochia; 31 g ai/ha, scale 0 to 100 (0 no effect, 100 complete control)", "value": 45}, {"measurement": "Plant response rating, Kochia", "setting": "kochia; 62 g ai/ha, scale 0 (no effect) to 100 (complete control)", "value": 50}, {"measurement": "Plant response rating, Kochia", "setting": "kochia; 125 g ai/ha, scale 0 to 100 (0 no effect, 100 complete control)", "value": 45}, {"measurement": "Plant response rating, Kochia", "setting": "kochia; 250 g ai/ha, scale 0 to 100 (0 no effect, 100 complete control)", "value": 40}, {"measurement": "Plant response rating, Velvetleaf", "setting": "velvetleaf; [3]", "value": 0}, {"measurement": "Plant response rating, Velvetleaf", "setting": "velvetleaf; [4]", "value": 0}, {"measurement": "Plant response rating, Velvetleaf", "setting": "velvetleaf; [5]", "value": 5}, {"measurement": "Plant response rating, Velvetleaf", "setting": "velvetleaf; [6]", "value": 20}, {"measurement": "Velvetleaf plant response rating", "setting": "velvetleaf; [7]", "value": 0}, {"measurement": "Plant response rating, Velvetleaf", "setting": "velvetleaf; [8]", "value": 10}, {"measurement": "Plant response rating, Velvetleaf", "setting": "velvetleaf; [9]", "value": 0}, {"measurement": "Plant response rating, Rice", "setting": "rice; [10]", "value": 0}, {"measurement": "Plant response rating, Rice", "setting": "rice; [11]", "value": 0}, {"measurement": "Plant response rating, Rice", "setting": "rice; 500 g ai/ha, scale 0 to 100", "value": 0}, {"measurement": "Plant response rating, Rice", "setting": "rice; 1000 g ai/ha, scale 0 to 100", "value": 0}, {"measurement": "Plant response rating, Sedge, Umbrella", "setting": "sedge, umbrella; [10]", "value": 0}, {"measurement": "Plant response rating, Sedge, Umbrella", "setting": "sedge, umbrella; [11]", "value": 0}, {"measurement": "Plant response rating, Sedge, Umbrella", "setting": "sedge, umbrella; 500 g ai/ha, scale 0 to 100", "value": 0}, {"measurement": "Plant response rating, Sedge, Umbrella", "setting": "sedge, umbrella; 1000 g ai/ha, scale 0 to 100", "value": 0}]}]}
